According to patent publication US10028938B2, “Antiviral agents and uses thereof” (Griffith University, priority 2014, dated 2018):
Like-named read-outs stand apart in the source and are kept apart here.

Legend:
hPIV-3 = test: In situ ELISA virus growth inhibition; assay type: cell-based, hPIV-3 (strain C-243); conditions: Human respirovirus 3; Table 4; A549 cells, hPIV-3; read-out: Cell-based ELISA IC50
hPIV-3 HN [1] = target: T1, hPIV-3 HN (UniProt P08492); assay type: biochemical, hPIV-3 (strain C-243); design: rows headed: NI hPIV-3 IC50; conditions: Table 4; read-out: NI hPIV-3 IC50
T1 sequence (P08492 1-572): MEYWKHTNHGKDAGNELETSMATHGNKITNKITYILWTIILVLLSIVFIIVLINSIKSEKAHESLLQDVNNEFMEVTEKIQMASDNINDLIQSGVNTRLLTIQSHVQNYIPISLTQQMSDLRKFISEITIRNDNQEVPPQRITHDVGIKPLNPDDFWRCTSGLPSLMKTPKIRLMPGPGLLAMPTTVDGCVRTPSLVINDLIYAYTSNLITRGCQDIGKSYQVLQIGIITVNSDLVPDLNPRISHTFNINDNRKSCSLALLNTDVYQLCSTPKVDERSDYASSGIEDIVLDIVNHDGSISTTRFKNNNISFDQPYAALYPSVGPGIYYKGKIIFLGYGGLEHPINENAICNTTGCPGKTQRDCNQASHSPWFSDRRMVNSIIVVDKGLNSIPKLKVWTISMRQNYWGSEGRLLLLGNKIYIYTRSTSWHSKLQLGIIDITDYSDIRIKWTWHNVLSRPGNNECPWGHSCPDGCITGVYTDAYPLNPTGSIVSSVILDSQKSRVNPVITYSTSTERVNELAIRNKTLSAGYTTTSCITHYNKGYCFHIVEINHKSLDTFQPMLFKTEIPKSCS

hPIV-3 HN [2] = target: T1, hPIV-3 HN; assay type: biochemical, hPIV-3 (strain C-243); design: rows headed: HI Mean IC50; hPIV-3 HN; 3 independent experiments; fold improvement in HI assay; other: versus 6; hPIV-3 HN HI IC50; other: text; other: text, unit given as M
hPIV-3 HN [3] = target: T1, hPIV-3 HN; assay type: biochemical, hPIV-3 (strain C-243); design: rows headed: NI Mean IC50; hPIV-3 HN; 3 independent experiments; Ki; Km value for MUN; other: whole hPIV-3 virus, [I]=0; fold improvement in NI assay; other: versus 6; hPIV-3 HN NI IC50; other: text; other: text, unit given as M
hPIV-1 NI = hPIV-1 NI (Human parainfluenza 1 virus, UniProt P16071); test: biochemical
Experimental: IC50 values for a number of compounds of the first aspect were determined by standard assay methods previously described in Guillon, P et al, Nature Communications (2014).

hPIV-3 HN [4] = target: T2, hPIV-3 HN (Human parainfluenza 3 virus, UniProt P08492); assay type: biochemical, hPIV-3 (strain C-243); conditions: Table 5; read-out: hPIV-3 NI (IC50 values)
hPIV-3 HN [5] = target: T2, hPIV-3 HN; assay type: binding; conditions: 20 μM hPIV-3 HN, protein:ligand 1:100
LLC-MK2 cells = test: MTT assay for compound cytotoxicity; conditions: 48 h, 30 μM, highest concentration tested
Experimental: Infection was performed in duplicate and continued for 1 h at 37° C. with gentle agitation every 15 min. Inocula were removed and replaced with 500 μL/well of each respective 2 μM compound dilution (in EMEMinf).

[6] = Table 2 prints no unit, μM, hPIV-3 HN, 3 independent experiments, read-out: NI Mean IC50
[7] = Table 2 prints no unit, μM, hPIV-3 HN, 3 independent experiments, read-out: HI Mean IC50

Sequence of hPIV-1 NI (P16071 whole entry): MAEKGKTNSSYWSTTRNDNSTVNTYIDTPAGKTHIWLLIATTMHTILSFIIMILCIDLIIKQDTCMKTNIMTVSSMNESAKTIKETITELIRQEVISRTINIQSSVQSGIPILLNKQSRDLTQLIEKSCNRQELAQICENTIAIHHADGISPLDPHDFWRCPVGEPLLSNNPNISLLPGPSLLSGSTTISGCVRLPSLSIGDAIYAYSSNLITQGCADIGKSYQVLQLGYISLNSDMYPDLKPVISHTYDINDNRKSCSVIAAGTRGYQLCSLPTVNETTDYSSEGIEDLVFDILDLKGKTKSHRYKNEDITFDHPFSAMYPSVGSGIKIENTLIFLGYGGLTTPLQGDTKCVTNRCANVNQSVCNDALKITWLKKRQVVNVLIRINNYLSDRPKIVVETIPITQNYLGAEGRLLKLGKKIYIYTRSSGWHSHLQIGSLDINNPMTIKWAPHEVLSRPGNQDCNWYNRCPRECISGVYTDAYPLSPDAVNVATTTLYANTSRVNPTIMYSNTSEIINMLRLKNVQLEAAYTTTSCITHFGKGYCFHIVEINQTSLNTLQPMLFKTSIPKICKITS

In the case of `CC(C)C(=O)NC1C(N=[N+]=[N-])C(F)C(F)(C(=O)O)OC1[C@H](O)[C@H](O)CO` (some centres unmarked) [I-70], the IC50 (hPIV-3) is reported as 14 µM and the IC50 (hPIV-3 HN [1]) is reported as 6 µM.

With `CC(=O)NC1C(O)C=C(C(=O)O)OC1C(O)C(O)CO` (centres unmarked) [Compound 2, Neu5Ac2en, reference compound] the IC50 (hPIV-3 HN [2]; read-out: hPIV-3 HN HI IC50) was 1440 µM.

`CC(=O)N[C@H]1[C@H]([C@H](O)[C@H](O)CO)OC(C(=O)[O-])=C[C@@H]1n1cc(-c2ccccc2)nn1.[Na+]` [Compound 8, Sodium 5-acetamido-2,6-anhydro-3,4,5-trideoxy-4-(4-phenyl-[1,2,3,]triazol-1-yl)-D-glycero-D-galacto-non-2-enonate] gave an IC50 (hPIV-3 HN [3]; [6]) of 6.51 µM, an IC50 (hPIV-3 HN [3]; read-out: hPIV-3 HN NI IC50) of 6.5 µM and an IC50 (hPIV-1 NI) of 168 µM. It also gave an IC50 (hPIV-3 HN [2]; [7]) of 4.58 µM, an IC50 (hPIV-3 HN [2]; read-out: hPIV-3 HN HI IC50) of 4.6 µM and an IC50 (hPIV-3 HN [4]) of 5.85 µM. For the same molecule, the “Relative STD NMR effect, ArH4′” value (hPIV-3 HN [5]; reference signal) was 100%, the “Relative STD NMR effect, ArH2′ ArH6′” value (hPIV-3 HN [5]; relative to ArH4′) was 92% and the “Relative STD NMR effect, ArH3′ ArH5′” value (hPIV-3 HN [5]; relative to ArH4′) was 100%. For the same molecule, the “Relative STD NMR effect, H3” value (hPIV-3 HN [5]; relative to ArH4′) was 85%, the “Relative STD NMR effect, H4” value (hPIV-3 HN [5]; relative to ArH4′) was 59% and the “Relative STD NMR effect, H5” value (hPIV-3 HN [5]; relative to ArH4′) was 50%. The “Relative STD NMR effect, H6” value (hPIV-3 HN [5]; relative to ArH4′) was 49%, the “Relative STD NMR effect, H7” value (hPIV-3 HN [5]; relative to ArH4′) was 30% and the “Relative STD NMR effect, H8” value (hPIV-3 HN [5]; relative to ArH4′) was 30%. For the same molecule, the “Relative STD NMR effect, H9” value (hPIV-3 HN [5]; relative to ArH4′) was 12%, the “Relative STD NMR effect, H9′” value (hPIV-3 HN [5]; relative to ArH4′) was 18% and the “Relative STD NMR effect, NHAc” value (hPIV-3 HN [5]; relative to ArH4′) was 41%. For the same molecule, the “Relative STD NMR effect, Triazole CH” value (hPIV-3 HN [5]; relative to ArH4′) was 63% and the “Cytotoxic effect (MTT)” value (LLC-MK2 cells) was “No cytotoxic effect”.

Work on `COCc1cn([C@H]2C=C(C(=O)O)O[C@@H]([C@H](O)[C@H](O)CO)[C@@H]2NC(C)=O)nn1` [Compound 7, Sodium 5-acetamido-2,6-anhydro-3,4,5-trideoxy-4-(4-methoxymethyl-[1,2,3,]triazol-1-yl)-D-glycero-D-galacto-non-2-enonate] yielded an IC50 (hPIV-3 HN [3]; [6]) of 154 µM, an IC50 (hPIV-3 HN [3]; read-out: hPIV-3 HN NI IC50) of 154 µM and an IC50 (hPIV-1 NI) of 19.8 µM. The IC50 (hPIV-3 HN [2]; [7]) was 312 µM, the IC50 (hPIV-3 HN [2]; read-out: hPIV-3 HN HI IC50) was 313 µM and the IC50 (hPIV-3 HN [4]) was 148 µM.

`COCc1cn([C@H]2C=C(C(=O)O)O[C@@H]([C@H](O)[C@H](O)CO)[C@@H]2NC(=O)C(C)C)nn1` [Compound 9, Sodium 2,6-anhydro-3,4,5-trideoxy-5-isobutyramido-4-(4-methoxymethyl-[1,2,3,]triazol-1-yl)-D-glycero-D-galacto-non-2-enonate] showed an IC50 (hPIV-3 HN [3]; [6]) of 14.2 µM, an IC50 (hPIV-3 HN [3]; read-out: hPIV-3 HN NI IC50) of 14.2 µM and an IC50 (hPIV-1 NI) of 0.489 µM. The IC50 (hPIV-3 HN [2]; [7]) was 13.8 µM, the IC50 (hPIV-3 HN [2]; read-out: hPIV-3 HN HI IC50) was 13.8 µM and the IC50 (hPIV-3 HN [4]) was 13.1 µM.

Molecule `CC(=O)NC1C(N=[N+]=[N-])C=C(C(=O)O)OC1C(O)C(O)CO` (centres unmarked) [Compound 3, 4-azido-4-deoxy-Neu5Ac2en, reference compound] has an IC50 (hPIV-3 HN [3]; [6]) of 138 µM and an IC50 (hPIV-3 HN [2]; read-out: hPIV-3 HN HI IC50) of 210 µM.

Molecule `CC(C)C(=O)NC1C(O)C=C(C(=O)O)OC1C(O)C(O)CO` (centres unmarked) [Compound 5, reference compound] has an IC50 (hPIV-3 HN [3]; [6]) of 188 µM and an IC50 (hPIV-3 HN [2]; [7]) of 358 µM.

`COCc1cn(C2C(NC(=O)C(C)C)C(C(O)C(O)CO)OC(F)(C(=O)O)C2F)nn1` (centres unmarked) [I-104] was tested, and the IC50 (hPIV-3) was 25 µM and the IC50 (hPIV-3 HN [1]) was 4 µM.

For `CC(=O)N[C@H]1[C@H]([C@H](O)C(O)CO)OC(C(=O)O)=C[C@@H]1n1nnc(-c2ccccc2)c1-c1ccccc1` (stereo partly drawn) [IE1172-102, Sodium 5-acetamido-2,6-anhydro-3,4,5-trideoxy-4-(4,5-diphenyl-[1,2,3,]triazol-1-yl)-D-glycero-D-galacto-non-2-enonate], the IC50 (hPIV-1 NI) was 793 µM and the IC50 (hPIV-3 HN [4]) was over 1000 µM.

`CC(C)C(=O)NC1C([C@H](O)[C@H](O)CO)OC(F)(C(=O)O)C(F)C1n1cc(-c2ccccc2)nn1` (some centres unmarked) [I-79] showed an IC50 (hPIV-3) of 45 µM and an IC50 (hPIV-3 HN [1]) of 63 µM.

`COc1ccc(-c2cn([C@H]3C=C(C(=O)O)O[C@@H]([C@H](O)[C@H](O)CO)[C@@H]3NC(C)=O)nn2)cc1` [IE832-31, Sodium 5-acetamido-2,6-anhydro-3,4,5-trideoxy-4-(4-(4-methoxyphenyl)-[1,2,3,]triazol-1-yl)-D-glycero-D-galacto-non-2-enonate] gave an IC50 (hPIV-1 NI) of 303 µM and an IC50 (hPIV-3 HN [4]) of 22.9 µM.
